Patent US20190159450A1, “PYRIDINE-BASED COMPOUND INCLUDING ISOXAZOLINE RING AND USE THEREOF AS HERBICIDE” (MOGHU RESEARCH CENTER LTD., priority 2016, published 2019)

Columns and labels:
Format in all cases: in vivo
maize [1] = assay: Herbicidal activity test, pre-weeds emergence treatment (crop damage); details: assessed 2 to 3 weeks after spraying, scale 0-10 (0: no effect, 10: complete death)
Protocol: (§1) A rectangular plastic pot with a surface area of 300 cm^2 was filled with sandy loam soil and mixed soil at a ratio of 1:1, and four kinds of weeds including Quamoclit pennata, Abutilon theophrasti Medicus, and Aeschynomene indica, Xanthium strumarium were sown therein. In another pot made in the same way, three kinds of crop seeds including maize, wheat, and rice were sown. The pots were watered and one day later, a medicament was sprayed thereon. The spraying was performed by using a track sprayer (R&D Sprayer, USA) equipped with Teejet 8002EVS (Spraying Systems Co., USA) nozzle, and the spray amount was controlled to be 1000 L/ha. A spray solution was prepared by dissolving the compound of each example or a control material in acetone, and then, adding the same amount of 0.1% (v/v) tween 20 aqueous solution thereto. The spray amount was 200 g/ha. The pots were placed in a greenhouse in which the temperature was maintained at 25° C. to 30° C. during the day and 15° C. to 25° C. during the night, and was regularly watered. After 2 to 3 weeks from the spraying of the compounds or the control material, the efficacy and the damages on each weed and each crop were assessed according to the scale of 0-10 (0: no effect, 10: complete death) scale and the results are shown in Table 3 below.
(§2) Pots for crops and weeds were prepared in the same manner as the test method illustrated in Table 3, and three kinds of weeds selected from Quamoclit pennata, Abutilon theophrasti Medicus, and Aeschynomene indica, Xanthium strumarium were used.

rice [2] = assay: as above; details: assessed 2 to 3 weeks after spraying, scale 0-10 (0: no effect, 10: complete death)
Protocol: as §1, §2

wheat [3] = assay: as above; details: assessed 2 to 3 weeks after spraying, scale 0-10 (0: no effect, 10: complete death)
Protocol: as §1, §2

[4] = tested on: Abutilon theophrasti Medicus; assay: Herbicidal activity test, pre-weeds emergence treatment; details: assessed 2 to 3 weeks after spraying, scale 0-10 (0: no effect, 10: complete death)
Protocol: as §1, §2

Aeschynomene indica [5] = assay: as above; details: assessed 2 to 3 weeks after spraying, scale 0-10 (0: no effect, 10: complete death)
Protocol: as §1, §2

Quamoclit pennata [6] = assay: as above; details: assessed 2 to 3 weeks after spraying, scale 0-10 (0: no effect, 10: complete death)
Protocol: as §1, §2

Xanthium strumarium [7] = assay: as above; details: assessed 2 to 3 weeks after spraying, scale 0-10 (0: no effect, 10: complete death)
Protocol: as §1, §2

maize [8] = assay: Herbicidal activity test, post-weeds emergence treatment (crop damage); details: assessed after 2 to 3 weeks, 0: no effect, 10: complete death
Protocol: as §1
(§3) Pots for crops and weeds were prepared in the same manner as in Experimental Example 1, and then, when the crops and the weeds were raised up to 2 weeks roughly on a third-leaf stage, the compounds and the control material were sprayed thereon in the same manner as described above. The spray amount was 200 g/ha. After 2 to 3 weeks from the spraying of the test substance or the control substance, the efficacy and the damages on each weed and each crop were assessed according to the scale of 0-10 (0: no effect, 10: complete death) scale.
as §2, with “5,” for “3,”, “four” for “three”, “used. The spray amount was 200 g/ha for crops and 50 g/ha for weeds.” for “used.”

rice [9] = assay: as above; details: assessed after 2 to 3 weeks, 0: no effect, 10: complete death
Protocol: as §1, §3
as §2, with “5,” for “3,”, “four” for “three”, “used. The spray amount was 200 g/ha for crops and 50 g/ha for weeds.” for “used.”

wheat [10] = assay: as above; details: assessed after 2 to 3 weeks, 0: no effect, 10: complete death
Protocol: as §1, §3
as §2, with “5,” for “3,”, “four” for “three”, “used. The spray amount was 200 g/ha for crops and 50 g/ha for weeds.” for “used.”

[11] = tested on: Abutilon theophrasti Medicus; assay: Herbicidal activity test, post-weeds emergence treatment; details: assessed after 2 to 3 weeks, 0: no effect, 10: complete death
Protocol: as §1, §3
as §2, with “5,” for “3,”, “four” for “three”, “used. The spray amount was 200 g/ha for crops and 50 g/ha for weeds.” for “used.”

Aeschynomene indica [12] = assay: as above; details: assessed after 2 to 3 weeks, 0: no effect, 10: complete death
Protocol: as §1, §3
as §2, with “5,” for “3,”, “four” for “three”, “used. The spray amount was 200 g/ha for crops and 50 g/ha for weeds.” for “used.”

Quamoclit pennata [13] = assay: as above; details: assessed after 2 to 3 weeks, 0: no effect, 10: complete death
Protocol: as §1, §3
as §2, with “5,” for “3,”, “four” for “three”, “used. The spray amount was 200 g/ha for crops and 50 g/ha for weeds.” for “used.”

Xanthium strumarium [14] = assay: as above; details: assessed after 2 to 3 weeks, 0: no effect, 10: complete death
Protocol: as §1, §3
as §2, with “5,” for “3,”, “four” for “three”, “used. The spray amount was 200 g/ha for crops and 50 g/ha for weeds.” for “used.”

[15] = spray amount 200 g/ha for crops, Table 6
[16] = spray amount 50 g/ha for weeds, Table 6

SMILES	PRE ZEAMX (maize), damage score (maize [1]; Table 4, 200 g/ha)	PRE ORYSA (rice), damage score (rice [2]; Table 4, 200 g/ha)	PRE TRZAW (wheat), damage score (wheat [3]; Table 4, 200 g/ha)	PRE ABUTH (Abutilon theophrasti Medicus), efficacy score ([4]; Table 4, 200 g/ha)	PRE AESIN (Aeschynomene indica), efficacy score (Aeschynomene indica [5]; Table 4, 200 g/ha)	PRE IPOAN (Quamoclit pennata), efficacy score (Quamoclit pennata [6]; Table 4, 200 g/ha)	PRE XANST (Xanthium strumarium), efficacy score (Xanthium strumarium [7]; Table 4, 200 g/ha)	ZEAMX (maize) damage, scale of 0-10 (maize [8]; [15])	ORYSA (rice) damage, scale of 0-10 (rice [9]; [15])	TRZAW (wheat) damage, scale of 0-10 (wheat [10]; [15])	ABUTH (Abutilon theophrasti Medicus) herbicidal efficacy, scale of 0-10 [11, 16]	AESIN (Aeschynomene indica) herbicidal efficacy, scale of 0-10 (Aeschynomene indica [12]; [16])	IPOAN (Quamoclit pennata) herbicidal efficacy, scale of 0-10 (Quamoclit pennata [13]; [16])	XANST (Xanthium strumarium) herbicidal efficacy, scale of 0-10 (Xanthium strumarium [14]; [16])	other results
CC(C)OC(=O)c1nc(C2CC(Br)=NO2)cc(N)c1Cl (centres unmarked) [Compound 83, isopropyl 4-amino-6-(3-bromo-4,5-dihydroisoxazol-5-yl)-3-chloropicolinate]	0	0	0	0	5	5	2	0	0	0	4	5	5	7	–
Nc1cc(C2CC(Br)=NO2)nc(C(=O)Oc2ccccc2)c1Cl (centres unmarked) [Compound 85, phenyl 4-amino-3-chloro-6-(3-bromo-4,5-dihydroisoxazol-5-yl)picolinate]	0	0	0	8	10	6	10	0	0	0	5	9	5	10	–
Nc1cc(C2CC(Br)=NO2)nc(C(=O)OCc2ccc(C(F)(F)F)cc2)c1Cl (centres unmarked) [Compound 88, 4-trifluoromethylbenzyl 4-amino-6-(3-bromo-4,5-dihydroisoxazol-5-yl)-3-chloropicolinate]	0	0	0	5	10	3	9	0	0	0	5	8	6	10	–
COC(=O)c1nc(C2CC(Br)=NO2)cc(NC(C)=O)c1Cl (centres unmarked) [Compound 3, methyl 4-acetamido-3-chloro-6-(3-bromo-4,5-dihydroisoxazol-5-yl)picolinate]	–	–	–	–	–	–	–	–	–	–	–	–	–	–	PRE ZEAMX (maize), damage score (maize [1]; Table 3, 200 g/ha): 0; PRE ORYSA (rice), damage score (rice [2]; Table 3, 200 g/ha): 0; PRE TRZAW (wheat), damage score (wheat [3]; Table 3, 200 g/ha): 0; PRE ABUTH (Abutilon theophrasti Medicus), efficacy score ([4]; Table 3, 200 g/ha): 10; PRE AESIN (Aeschynomene indica), efficacy score (Aeschynomene indica [5]; Table 3, 200 g/ha): 10; PRE IPOAN (Quamoclit pennata), efficacy score (Quamoclit pennata [6]; Table 3, 200 g/ha): 8; PRE XANST (Xanthium strumarium), efficacy score (Xanthium strumarium [7]; Table 3, 200 g/ha): 8; ZEAMX (maize) damage, scale of 0-10 (maize [8]; spray amount 200 g/ha, Table 5): 0; ORYSA (rice) damage, scale of 0-10 (rice [9]; spray amount 200 g/ha, Table 5): 0; TRZAW (wheat) damage, scale of 0-10 (wheat [10]; spray amount 200 g/ha, Table 5): 0; ABUTH (Abutilon theophrasti Medicus) herbicidal efficacy, scale of 0-10 ([11]; spray amount 200 g/ha, Table 5): 3; AESIN (Aeschynomene indica) herbicidal efficacy, scale of 0-10 (Aeschynomene indica [12]; spray amount 200 g/ha, Table 5): 10; IPOAN (Quamoclit pennata) herbicidal efficacy, scale of 0-10 (Quamoclit pennata [13]; spray amount 200 g/ha, Table 5): 6; XANST (Xanthium strumarium) herbicidal efficacy, scale of 0-10 (Xanthium strumarium [14]; spray amount 200 g/ha, Table 5): 10
Nc1cc(C2CC(Br)=NO2)nc(C(=O)O)c1Cl (centres unmarked) [Compound 34, 4-amino-3-chloro-6-(3-bromo-4,5-dihydroisoxazol-5-yl)picolinic acid]	0	0	0	9	10	10	10	0	2	0	6	10	3	10	–
COc1ccc(COC(=O)c2nc(C3CC(Br)=NO3)cc(N)c2Cl)cc1 (centres unmarked) [Compound 89, 4-methoxybenzyl 4-amino-6-(3-bromo-4,5-dihydroisoxazol-5-yl)-3-chloropicolinate]	0	0	0	8	10	8	10	0	0	0	6	8	5	9	–
Nc1cc(C2CC(Cl)=NO2)nc(C(=O)O)c1Cl (centres unmarked) [Compound 38, 4-amino-3-chloro-6-(3-chloro-4,5-dihydroisoxazol-5-yl)picolinic acid]	–	–	–	–	–	–	–	–	–	–	–	–	–	–	PRE ZEAMX (maize), damage score (maize [1]; Table 3, 200 g/ha): 0; PRE ORYSA (rice), damage score (rice [2]; Table 3, 200 g/ha): 7; PRE TRZAW (wheat), damage score (wheat [3]; Table 3, 200 g/ha): 2; PRE ABUTH (Abutilon theophrasti Medicus), efficacy score ([4]; Table 3, 200 g/ha): 10; PRE AESIN (Aeschynomene indica), efficacy score (Aeschynomene indica [5]; Table 3, 200 g/ha): 10; PRE IPOAN (Quamoclit pennata), efficacy score (Quamoclit pennata [6]; Table 3, 200 g/ha): 10; PRE XANST (Xanthium strumarium), efficacy score (Xanthium strumarium [7]; Table 3, 200 g/ha): 10; ZEAMX (maize) damage, scale of 0-10 (maize [8]; spray amount 200 g/ha, Table 5): 1; ORYSA (rice) damage, scale of 0-10 (rice [9]; spray amount 200 g/ha, Table 5): 3; TRZAW (wheat) damage, scale of 0-10 (wheat [10]; spray amount 200 g/ha, Table 5): 0; ABUTH (Abutilon theophrasti Medicus) herbicidal efficacy, scale of 0-10 ([11]; spray amount 200 g/ha, Table 5): 10; AESIN (Aeschynomene indica) herbicidal efficacy, scale of 0-10 (Aeschynomene indica [12]; spray amount 200 g/ha, Table 5): 10; IPOAN (Quamoclit pennata) herbicidal efficacy, scale of 0-10 (Quamoclit pennata [13]; spray amount 200 g/ha, Table 5): 9; XANST (Xanthium strumarium) herbicidal efficacy, scale of 0-10 (Xanthium strumarium [14]; spray amount 200 g/ha, Table 5): 10
